Assay results as given in publication PMC5851651, “Population-specific design of de-immunized protein biotherapeutics” (PLoS Computational Biology, 2018).

Experiments:
[1] = test system: DRB1*15:01, DRB1*03:01 and DRB1*07:01; assay: Experimental immunogenicity score: relative HLA binding combined across alleles, weighted by allele frequency; set-up: species or system human; key: allele-frequency-weighted sum of binding, % of control peptide signal; conditions: for Difference to WT (Experimental Score): per peptide against wild-type counterpart; for Experimental Score: per peptide, weights DRB1*15:01 0.162, DRB1*07:01 0.146, DRB1*03:01 0.143
Description: (§1) To test the designs, we synthesized twenty overlapping 15-mer peptides containing the introduced mutations and their wild-type counterparts. The peptides maximally covered the predicted epitopes around the mutations of all designed constructs that contained one and two mutations (Supplementary S2 Table). The affinity of these peptides to the three HLA alleles was measured at time zero and after 24 hours (Methods, Supplementary S3 and S4 Tables). We linearly combined the measured relative affinity scores across HLA alleles weighted by their allele frequencies for each peptide respectively to produce a score that approximates the overall immunogenicity (Fig 5A). Results are presented for measurements taken at time point zero. […] Overall, the measured and predicted immunogenicity of the tested peptides correlated well with r = 0.76 (CI95 = [0.48, 0.91], t = 4.885, df = 17, p-value = 1.4e-4; Fig 5A). Next, we compared the predicted and measured gain or loss in immunogenicity for the whole region by reconstructing the targeted region using overlapping peptides. The measured relative scores were linearly combined (as previously) and then normalized to the number of overlapping peptides used in the reconstruction (Fig 5B). The difference in the measured scores between the wild type and mutant regions can be thought of as a proxy for gain or loss in immunogenicity and correlated well to the predicted changes (r = 0.86, CI95 = [0.40, 0.97], t = 4.136, df = 6, p-value = 6.1e-3; Fig 5B).
Fig 5 (A) Correlation of experimental and predicted immunogenicity of each peptide. The experimental immunogenicity score of a peptide is defined as the linear combination of the individual experimentally determined relative HLA binding affinity of each HLA allele h ∈ H weighted by the HLA allele frequency. (B) Correlation of experimental and predicted immunogenicity of the whole redesigned region. The summarized immunogenicity score of the whole region is the linear combination of the overlapping peptides used to reconstruct the region, normalized by total number of peptides used. The predicted immunogenicity scores per peptide were computed according to our immunogenicity objective function. The red lines are a fitted linear regression and the red tubes represent their 95-confidence interval.
(§2) In order to experimentally verify our in silico predictions for Factor VIII, we utilized the commercial REVEAL HLA-Peptide binding assay of ProImmune (www.proimmune.com). Peptides were synthesized using the PEPscreen custom library synthesis method, yielding high purity peptides for experimental analysis. HLA-peptide binding was assessed for the three HLA-DRB1 alleles used in this study (DRB1*15:01, DRB1*03:01 and DRB1*07:01). In short, the method compares the affinity of the studied peptide to the affinity of a high-affinity control peptide. Each peptide is then scored for binding to a certain HLA molecule relative to the score of the control peptide and reported as the percentage of the signal generated by the control peptide.

DRB1*07:01 = DRB1*07:01 (Homo sapiens, UniProt P01903+P01911, A100R/A102G/A103Q/D57E/D86V/E43K/F76Y/K127E/L162R/M171V/P40G/Q125H/Q99D/R33Q/R42Y/R54Q/S133A/S66F/T210M/V115G/Y107V/Y59L/Y89S); assay: REVEAL HLA-Peptide binding assay (ProImmune); conditions: score relative to high-affinity control peptide, percentage of the control signal
Description: as §1, §2

DRB1*03:01 = target: T1, DRB1*03:01 (Homo sapiens, UniProt P01903+P01911, A100K/A102G/A103R/A169T/F55Y/I96L/K41T/L162R/M171V/P40S/Q125H/Q178H/Q39Y/R42S/S66N/T106N/T262R/W38E/Y61H); assay: REVEAL HLA-Peptide binding assay (ProImmune); conditions: score relative to high-affinity control peptide, percentage of the control signal
T1 construct: purchased ProImmune
Description: as §1, §2

DRB1*15:01 = target: T2, DRB1*15:01 (Homo sapiens, UniProt P01903+P01911); assay: REVEAL HLA-Peptide binding assay (ProImmune); conditions: score relative to high-affinity control peptide, percentage of the control signal
T2 construct: purchased ProImmune
Description: as §1, §2

[2] = time 0 (H0), listed as FTRYLRIHPQSWEHQ
[3] = time 0 (H0), listed as FTRYLRIHPQSWVHH
[4] = time 0 (H0), listed as LRIHPQSWEHQIALRM
[5] = time 0 (H0), listed as LRIHPQSWVHHIALRM
[6] = time 0 (H0), listed as LRIHPQSWVHQIALRM
[7] = time 0 (H0), listed as LTRHLRIHPQSWEHQ
[8] = time 0 (H0), listed as LTRLLRIHPQSWEHQ
[9] = time 0 (H0), listed as LTRYLRIHPQSWVHQ
[10] = time 0 (H0), listed as TTRYLRIHPQSWEHQ

Sequence | DRB1*07:01 (DRB1*07:01; after 24 hours (H24)) | DRB1*07:01 (DRB1*07:01; time 0 (H0)) | DRB1*03:01 (DRB1*03:01; after 24 hours (H24)) | DRB1*03:01 (DRB1*03:01; time 0 (H0)) | DRB1*15:01 (DRB1*15:01; after 24 hours (H24)) | DRB1*15:01 (DRB1*15:01; time 0 (H0)) | Difference to WT (Experimental Score) ([1]; after 24 hours (H24)) | Experimental Score ([1]; after 24 hours (H24)) | Difference to WT (Experimental Score) ([1]; time 0 (H0)) | Experimental Score ([1]; time 0 (H0)) | further results
LRIHPQSWEHQIALRM [Design M-6, peptide covering V2333E] | 19.800% | 32.020% | 0.000% | 0.157% | 11.600% | 44.319% | -3.607 | 4.770 | -4.693 | 11.877 | DRB1*07:01 (DRB1*07:01; [4]): 32%; DRB1*03:01 (DRB1*03:01; [4]): 0.2%; DRB1*15:01 (DRB1*15:01; [4]): 44.3%
LRIHPQSWVHHIALRM [Design M-5, peptide covering Q2335H] | 40.700% | 65.265% | 0.000% | 0.555% | 20.400% | 47.784% | 0.870 | 9.247 | 0.779 | 17.349 | DRB1*07:01 (DRB1*07:01; [5]): 65.3%; DRB1*03:01 (DRB1*03:01; [5]): 0.6%; DRB1*15:01 (DRB1*15:01; [5]): 47.8%
LTRHLRIHPQSWEHQ [Design M-8, peptide covering Y2324H, V2333E] | 0.100% | 2.480% | 0.000% | 0.000% | 2.000% | 13.999% | -13.048 | 0.339 | -15.092 | 2.630 | DRB1*07:01 (DRB1*07:01; [7]): 14.0%; DRB1*03:01 (DRB1*03:01; [7]): 2.5%; DRB1*15:01 (DRB1*15:01; [7]): 0.0%
LTRLLRIHPQSWEHQ [Design M-7, peptide covering Y2324L, V2333E] | 20.100% | 33.528% | 0.000% | 0.026% | 0.100% | 5.445% | -10.436 | 2.951 | -11.941 | 5.781 | DRB1*07:01 (DRB1*07:01; [8]): 33.5%; DRB1*03:01 (DRB1*03:01; [8]): 0%; DRB1*15:01 (DRB1*15:01; [8]): 5.4%
LTRYLKIHPQSWEHQ [Design M-9, peptide covering R2326K, V2333E] | 17.900% | 28.951% | 0.000% | 1.668% | 0.300% | 5.434% | -10.725 | 2.662 | -12.376 | 5.346 | 
RIHPQSWVHHIALRM [Design M-4, peptide covering Q2335H] | 53.300% | 75.329% | 0.000% | 0.005% | 0.000% | 9.756% | 2.595 | 7.782 | 5.857 | 12.579 | 

The next lines start with results.

DRB1*07:01 (DRB1*07:01; after 24 hours (H24)) | DRB1*07:01 (DRB1*07:01; time 0 (H0)) | DRB1*03:01 (DRB1*03:01; after 24 hours (H24)) | DRB1*03:01 (DRB1*03:01; time 0 (H0)) | DRB1*15:01 (DRB1*15:01; after 24 hours (H24)) | DRB1*15:01 (DRB1*15:01; time 0 (H0)) | Sequence | Difference to WT (Experimental Score) ([1]; after 24 hours (H24)) | Experimental Score ([1]; after 24 hours (H24)) | Difference to WT (Experimental Score) ([1]; time 0 (H0)) | Experimental Score ([1]; time 0 (H0)) | further results
27.400% | 43.779% | 0.000% | 0.020% | 0.300% | 2.906% | FTRYLRIHPQSWEHQ [Design M-10, peptide covering L2321F, V2333E] | -9.338 | 4.049 | -10.856 | 6.865 | DRB1*07:01 (DRB1*07:01; [2]): 43.8%; DRB1*03:01 (DRB1*03:01; [2]): 0%; DRB1*15:01 (DRB1*15:01; [2]): 2.9%
29.800% | 39.809% | 0.000% | 1.449% | 7.500% | 16.564% | FTRYLRIHPQSWVHH [Design M-13, peptide covering L2321F, Q2335H] | -7.821 | 5.566 | -9.019 | 8.703 | DRB1*07:01 (DRB1*07:01; [3]): 39.8%; DRB1*03:01 (DRB1*03:01; [3]): 1.4%; DRB1*15:01 (DRB1*15:01; [3]): 16.6%
38.252% | 56.788% | 0.021% | 0.200% | 17.219% | 50.927% | LRIHPQSWVHQIALRM [WT-4, wild-type peptide of Factor VIII C2 domain, reference compound] |  | 8.377 |  | 16.570 | DRB1*07:01 (DRB1*07:01; [6]): 56.8%; DRB1*03:01 (DRB1*03:01; [6]): 0.2%; DRB1*15:01 (DRB1*15:01; [6]): 50.9%
21.500% | 42.841% | 0.000% | 0.032% | 5.300% | 18.099% | LRLHPQSWEHQIALRM [Design M-15, peptide covering I2327L, V2333E] | -4.380 | 3.998 | -7.378 | 9.191 | 
74.002% | 87.324% | 0.243% | 0.243% | 15.728% | 30.478% | LTRYLRIHPQSWVHQ [WT-3, wild-type peptide of Factor VIII C2 domain, reference compound] |  | 13.387 |  | 17.722 | DRB1*07:01 (DRB1*07:01; [9]): 87.3%; DRB1*03:01 (DRB1*03:01; [9]): 0.2%; DRB1*15:01 (DRB1*15:01; [9]): 30.5%
35.522% | 40.243% | 0.000% | 0.226% | 0.00277% | 5.029% | RIHPQSWVHQIALRM [WT-2, wild-type peptide of Factor VIII C2 domain, reference compound] |  | 5.187 |  | 6.723 | 
49.600% | 71.612% | 0.000% | 0.544% | 1.600% | 6.575% | TTRYLRIHPQSWEHQ [Design M-11, peptide covering L2321T, V2333E] | -5.886 | 7.501 | -6.123 | 11.598 | DRB1*07:01 (DRB1*07:01; [10]): 71.6%; DRB1*03:01 (DRB1*03:01; [10]): 0.5%; DRB1*15:01 (DRB1*15:01; [10]): 6.6%
